Source: the NIST ThermoML archive (doi:10.1021/je0342062)
± gives the expanded uncertainty stated by the source.

Tests used:
[1] = 101.33 kPa, Liquid, Vibrating tube method
[2] = xn = mol fraction of the nth substance listed; settings: 308.15 K, 101.32 kPa, Liquid, Vibrating tube method
[3] = excess molar enthalpy (molar enthalpy of mixing); xn = mol fraction of the nth substance listed; settings: 308.15 K, 101.32 kPa, Liquid

OCc1ccccc1 [benzenemethanol]
[1]
Settings	mass density [kg/m3]
298.15 K	1041.46 ± 0.53
308.15 K	1033.7 ± 0.52

OCc1ccccc1 [benzenemethanol] + OCCO
Settings	excess molar enthalpy [kcal/mol]	mass density [kg/m3]
[2], x2 = 0.0395	–	1035.06 ± 0.52
[2], x2 = 0.1313	–	1038.54 ± 0.53
[2], x2 = 0.2622	–	1044.29 ± 0.53
[2], x2 = 0.3189	–	1047.1 ± 0.53
[2], x2 = 0.4645	–	1055.28 ± 0.54
[2], x2 = 0.5057	–	1057.9 ± 0.54
[2], x2 = 0.609	–	1065.04 ± 0.54
[2], x2 = 0.6863	–	1071.03 ± 0.54
[2], x2 = 0.7371	–	1075.32 ± 0.55
[2], x2 = 0.8097	–	1081.99 ± 0.55
[2], x2 = 0.879	–	1088.96 ± 0.55
[2], x2 = 0.9638	–	1098.48 ± 0.56
[3], x2 = 0.0719	0.0277 ± 0.0016	–
[3], x2 = 0.1341	0.0409 ± 0.00201	–
[3], x2 = 0.1886	0.0482 ± 0.00222	–
[3], x2 = 0.2365	0.05 ± 0.00229	–
[3], x2 = 0.3173	0.0512 ± 0.00232	–
[3], x2 = 0.3826	0.0503 ± 0.00229	–
[3], x2 = 0.4817	0.048 ± 0.00222	–
[3], x2 = 0.5533	0.0457 ± 0.00215	–
[3], x2 = 0.6502	0.0402 ± 0.00198	–
[3], x2 = 0.7361	0.0331 ± 0.00177	–
[3], x2 = 0.788	0.0282 ± 0.00163	–
[3], x2 = 0.848	0.0206 ± 0.00139	–
[3], x2 = 0.8815	0.017 ± 0.00127	–
[3], x2 = 0.9177	0.0114 ± 0.0011	–
[3], x2 = 0.937	0.00875 ± 0.001	–
[3], x2 = 0.9571	0.00602 ± 0.000932	–
[3], x2 = 0.9781	0.00299 ± 0.000837	–

OCc1ccccc1 [benzenemethanol] + OCCOCCO
Settings	excess molar enthalpy [kcal/mol]	mass density [kg/m3]
[2], x2 = 0.0719	–	1038.79 ± 0.53
[2], x2 = 0.1308	–	1042.93 ± 0.53
[2], x2 = 0.2285	–	1049.76 ± 0.53
[2], x2 = 0.3115	–	1055.63 ± 0.54
[2], x2 = 0.4139	–	1062.92 ± 0.54
[2], x2 = 0.5312	–	1071.36 ± 0.54
[2], x2 = 0.6035	–	1076.6 ± 0.55
[2], x2 = 0.7277	–	1085.7 ± 0.55
[2], x2 = 0.8237	–	1092.77 ± 0.56
[2], x2 = 0.8597	–	1095.43 ± 0.56
[2], x2 = 0.8984	–	1098.29 ± 0.56
[2], x2 = 0.9539	–	1102.43 ± 0.56
[3], x2 = 0.0434	-0.0338 ± 0.00179	–
[3], x2 = 0.0833	-0.0564 ± 0.00239	–
[3], x2 = 0.1199	-0.0717 ± 0.00287	–
[3], x2 = 0.1537	-0.0822 ± 0.00335	–
[3], x2 = 0.2142	-0.0945 ± 0.00359	–
[3], x2 = 0.2665	-0.101 ± 0.00382	–
[3], x2 = 0.3528	-0.105 ± 0.00406	–
[3], x2 = 0.4208	-0.107 ± 0.00406	–
[3], x2 = 0.5216	-0.109 ± 0.00406	–
[3], x2 = 0.6206	-0.107 ± 0.00406	–
[3], x2 = 0.6856	-0.102 ± 0.00382	–
[3], x2 = 0.7658	-0.0887 ± 0.00359	–
[3], x2 = 0.8135	-0.0791 ± 0.00311	–
[3], x2 = 0.8674	-0.0599 ± 0.00263	–
[3], x2 = 0.897	-0.0501 ± 0.00229	–
[3], x2 = 0.929	-0.0362 ± 0.00186	–
[3], x2 = 0.9632	-0.0197 ± 0.00136	–

OCc1ccccc1 [benzenemethanol] + OCCOCCOCCO
Settings	excess molar enthalpy [kcal/mol]	mass density [kg/m3]
[2], x2 = 0.0519	–	1039.48 ± 0.53
[2], x2 = 0.174	–	1051.93 ± 0.53
[2], x2 = 0.2411	–	1058.18 ± 0.54
[2], x2 = 0.3373	–	1066.69 ± 0.54
[2], x2 = 0.4327	–	1074.57 ± 0.55
[2], x2 = 0.5295	–	1082.04 ± 0.55
[2], x2 = 0.632	–	1089.43 ± 0.55
[2], x2 = 0.7533	–	1097.6 ± 0.56
[2], x2 = 0.8256	–	1102.12 ± 0.56
[2], x2 = 0.8572	–	1104.07 ± 0.56
[2], x2 = 0.9337	–	1108.5 ± 0.56
[2], x2 = 0.961	–	1110.01 ± 0.57
[3], x2 = 0.0313	-0.0333 ± 0.000908	–
[3], x2 = 0.0606	-0.0576 ± 0.00129	–
[3], x2 = 0.0883	-0.0752 ± 0.0016	–
[3], x2 = 0.1143	-0.0883 ± 0.00182	–
[3], x2 = 0.1623	-0.104 ± 0.00208	–
[3], x2 = 0.2047	-0.111 ± 0.00222	–
[3], x2 = 0.2792	-0.118 ± 0.00232	–
[3], x2 = 0.3405	-0.12 ± 0.00237	–
[3], x2 = 0.4366	-0.121 ± 0.00237	–
[3], x2 = 0.5376	-0.121 ± 0.00237	–
[3], x2 = 0.6078	-0.12 ± 0.00237	–
[3], x2 = 0.6992	-0.109 ± 0.00217	–
[3], x2 = 0.756	-0.0968 ± 0.00196	–
[3], x2 = 0.823	-0.0791 ± 0.00165	–
[3], x2 = 0.8613	-0.0665 ± 0.00143	–
[3], x2 = 0.9029	-0.0502 ± 0.00117	–
[3], x2 = 0.949	-0.0239 ± 0.000741	–

OCCOCCO [diethylene glycol]
[1]
Settings	mass density [kg/m3]
298.15 K	1112.38 ± 0.57
308.15 K	1105.88 ± 0.56

OCCOCCOCCO [triethylene glycol]
[1]
Settings	mass density [kg/m3]
298.15 K	1119.78 ± 0.57
308.15 K	1112.61 ± 0.57
